Assay results published in publication PMC6273036, “N-Alkoxyphenylhydroxynaphthalenecarboxamides and Their Antimycobacterial Activity” (Molecules, 2016).
≈ marks a conversion by molar mass, not a printed value.

Key:
[1] = test system: Mycobacterium tuberculosis H37Ra ATCC 25177; assay: In vitro antimycobacterial evaluation (alamarBlue, MIC) against M. tuberculosis; assay type: cell-based; conditions: 168 h, M. tuberculosis H37Ra ATCC 25177, MIC = 90% or greater (IC90) reduction of growth, 7 days
Protocol: The evaluation of the in vitro antimycobacterial activity of the compounds was performed against Mycobacterium tuberculosis H37Ra ATCC 25177 (MT), M. kansasii DSM 44162 (MK) and M. smegmatis ATCC 700084 (MS), see Table 1. To lower risk and make manipulation in the laboratory easier, surrogate model pathogens for M. tuberculosis can be used in laboratory studies. Avirulent M. tuberculosis strain H37Ra is very closely related to and has similar pathology as human-infecting M. tuberculosis strains, making it a good model for study especially because of the lower risk for laboratory workers. M. kansasii, the most virulent of the NTM, causes nontuberculous mycobacterial lung infections, which are now very common, and can be indistinguishable from tuberculosis. M. smegmatis is an ideal representative of a fast-growing nonpathogenic microorganism, particularly useful in studying basic cellular processes of special relevance to pathogenic mycobacteria. Therefore additionally M. kansasii and M. smegmatis were chosen as model species for screening of prospective antimycobacterial drugs to control mycobacterial diseases. The potency of the compounds was expressed as the minimum inhibitory concentration (MIC) that is defined for mycobacteria as 90% or greater (IC90) reduction of growth in comparison with the control.
Mycobacterium tuberculosis H37Ra ATCC 25177 was grown in Middlebrook broth (MB), supplemented with Oleic-Albumin-Dextrose-Catalase (OADC) supplement (Becton, Dickinson & Comp., Franklin Lakes, NJ, USA) and mycobactin J (2 μg/mL). At log phase growth, a culture sample (10 mL) was centrifuged at 15,000 rpm/20 min using a bench top centrifuge (Model CR 4-12, Jouan Inc., Winchester, VA, USA). Following the removal of the supernatant, the pellet was washed in fresh Middlebrook 7H9GC broth and re-suspended in fresh, ODAC-supplemented MB (10 mL). The turbidity was adjusted to match McFarland standard No. 1 (3 × 10^8 cfu) with MB broth. A further 1:20 dilution of the culture was then performed in MB broth. The antimicrobial susceptibility of M. tuberculosis was investigated in a 96-well plate format. In these experiments, sterile deionised water (300 µL) was added to all outer-perimeter wells of the plates to minimize evaporation of the medium in the test wells during incubation. Each evaluated compound (100 µL) was incubated with M. tuberculosis (100 µL). Dilutions of each compound were prepared in duplicate. For all synthesized compounds, final concentrations ranged from 1000 μg/mL to 8 μg/mL. All compounds were dissolved in DMSO, and subsequent dilutions were made in supplemented MB. The plates were sealed with parafilm and incubated at 37 °C for 7 days. Following incubation, a 10% addition of alamarBlue (AbD Serotec, Kidlington, UK) was mixed into each well, and readings at 570 nm and 600 nm were taken, initially for background subtraction and subsequently after 24 h re-incubation. The background subtraction is necessary for strongly coloured compounds, where the colour may interfere with the interpretation of any colour change. For non-interfering compounds, a blue colour in the well was interpreted as the absence of growth, and a pink colour was scored as growth.
The minimum inhibitory concentration (MIC) was defined as the lowest concentration of the compound at which no visible bacterial growth was observed, i.e., the MIC is the lowest concentration that prevented a visual colour change from blue to pink. MIC is defined for mycobacteria as 90% or greater (IC90) reduction of growth in comparison with the control. The MIC/IC90 value is routinely and widely used in bacterial assays and is a standard detection limit according to the Clinical and Laboratory Standards Institute (CLSI, www.clsi.org). Rifampicin and isoniazid (Sigma-Aldrich) were used as the standards as they are clinically used antimycobacterial drugs.

[2] = test system: Mycobacterium kansasii DSM 44162; assay: In vitro antimycobacterial evaluation (broth dilution micro-method, MIC) against M. kansasii; assay type: cell-based; conditions: DSM44162, 168 h, M. kansasii DSM 44162, MIC = IC90, 7 days incubation, visual
[3] = test system: human monocytic leukemia THP-1 cells; assay: In vitro antiproliferative assay (WST-1); conditions: THP-1, 24 h, read-out: IC50 (antiproliferative activity)
Protocol: Human monocytic leukemia THP-1 cells were used for in vitro antiproliferative assay. Cells were obtained from the European Collection of Cell Cultures (ECACC, Salisbury, UK) and routinely cultured in RPMI 1640 medium supplemented with 10% fetal bovine serum, 2% L-glutamine, 1% penicillin and streptomycin at 37 °C with 5% CO2. Cells were passaged at approximately one-week intervals. Antiproliferative activity of the compounds was determined using a Water Soluble Tetrazolium Salts-1 (WST-1, 2-(4-iodophenyl)-3-(4-nitrophenyl)-5-(2,4-disulfophenyl)-2H-tetrazolium) assay kit (Roche Diagnostics, Mannheim, Germany) according to the manufacturer’s instructions. The tested compounds were dissolved in DMSO and added in five increasing concentrations (0.37, 1.1, 3.3, 10 and 30 μM) to the cell suspension in the culture RPMI 1640 medium. The maximum concentration of DMSO in the assays never exceeded 0.1%. Subsequently, the cells were incubated for 24 h at 37 °C with 5% CO2. For WST-1 assays, cells were seeded into 96-well plates (5 × 10^4 cells/well in 100 μL culture medium) in triplicate in serum-free RPMI 1640 medium, and measurements were taken 24 h after the treatment with the compounds. The median inhibition concentration values, IC50, were deduced through the production of a dose-response curve. All data were evaluated using GraphPad Prism 5.00 software (GraphPad Software, San Diego, CA, USA).

[4] = test system: M. smegmatis ATCC 700084; assay: In vitro antimycobacterial evaluation (broth dilution micro-method, MIC) against M. smegmatis; assay type: cell-based; conditions: Mycolicibacterium smegmatis, ATCC700084, 72 h; Mycobacterium smegmatis ATCC 700084; MIC = IC90; 3 days incubation, visual

| SMILES | MIC [1] [µM] | MIC [2] [µM] | IC50 [3] [µM] | MIC [4] [µM] |
| --- | --- | --- | --- | --- |
| O=C(Nc1ccccc1)c1c(O)ccc2ccccc12 [Compound 1, 2-Hydroxy-N-phenylnaphthalene-1-carboxamide] | 94 (≈ 24.7 µg/mL) | 15 (≈ 3.95 µg/mL) | > 30 |  |
| COc1ccccc1NC(=O)c1c(O)ccc2ccccc12 [Compound 2a, 2-hydroxy-N-(2-methoxyphenyl)naphtha-lene-1-carboxamide] | 852 (≈ 250 µg/mL) | 873 (≈ 256 µg/mL) |  | 873 (≈ 256 µg/mL) |
| COc1cccc(NC(=O)c2c(O)ccc3ccccc23)c1 [Compound 2b, 2-hydroxy-N-(3-methoxyphenyl)naphthalene-1-carboxamide] | 852 (≈ 250 µg/mL) |  |  |  |
| COc1ccc(NC(=O)c2c(O)ccc3ccccc23)cc1 [Compound 2c, 2-hydroxy-N-(4-methoxyphenyl)naphthalene-1-carboxamide] | 852 (≈ 250 µg/mL) |  |  |  |
| CCOc1cccc(NC(=O)c2c(O)ccc3ccccc23)c1 [Compound 3b, N-(3-Ethoxyphenyl)-2-hydroxynaphthalene-1-carboxamide] | 813 (≈ 250 µg/mL) | 208 (≈ 63.9 µg/mL) |  | 416 (≈ 128 µg/mL) |
| CCCOc1ccccc1NC(=O)c1c(O)ccc2ccccc12 [Compound 4a, 2-Hydroxy-N-(2-propoxyphenyl)naphthalene-1-carboxamide] | 37 (≈ 11.9 µg/mL) | 99 (≈ 31.8 µg/mL) | > 30 | 796 (≈ 256 µg/mL) |
| CCCOc1cccc(NC(=O)c2c(O)ccc3ccccc23)c1 [Compound 4b, 2-Hydroxy-N-(3-propoxyphenyl)naphthalene-1-carboxamide] | 46 (≈ 14.8 µg/mL) | 199 (≈ 64 µg/mL) | 8.97 ± 0.34 | 398 (≈ 128 µg/mL) |
| CCCCOc1ccccc1NC(=O)c1c(O)ccc2ccccc12 [Compound 5a, N-(2-Butoxyphenyl)-2-hydroxynaphthalene-1-carboxamide] | 745 (≈ 250 µg/mL) | 763 (≈ 256 µg/mL) | > 30 | 763 (≈ 256 µg/mL) |
| CCCCOc1ccc(NC(=O)c2c(O)ccc3ccccc23)cc1 [Compound 5c, N-(4-Butoxyphenyl)-2-hydroxynaphthalene-1-carboxamide] | 745 (≈ 250 µg/mL) | 95 (≈ 31.9 µg/mL) | > 30 | 763 (≈ 256 µg/mL) |
| CC(C)Oc1ccccc1NC(=O)c1c(O)ccc2ccccc12 [Compound 6a, 2-Hydroxy-N-[2-(prop-2-yloxy)phenyl]naphthalene-1-carboxamide] | 31 (≈ 9.96 µg/mL) | 99 (≈ 31.8 µg/mL) | > 30 | 796 (≈ 256 µg/mL) |
| CC(C)Oc1cccc(NC(=O)c2c(O)ccc3ccccc23)c1 [Compound 6b, 2-Hydroxy-N-[3-(prop-2-yloxy)phenyl]naphthalene-1-carboxamide] | 778 (≈ 250 µg/mL) | 199 (≈ 64 µg/mL) | 8.84 ± 0.22 | 398 (≈ 128 µg/mL) |
| CCC(C)Oc1ccccc1NC(=O)c1c(O)ccc2ccccc12 (stereo not shown) [Compound 7a, N-[2-(But-2-yloxy)phenyl]-2-hydroxynaphthalene-1-carboxamide] | 44 (≈ 14.8 µg/mL) | 95 (≈ 31.9 µg/mL) | 8.35 ± 1.25 | 763 (≈ 256 µg/mL) |
| O=C(Nc1ccccc1)c1ccc2ccccc2c1O [Compound 8, 1-Hydroxy-N-phenylnaphthalene-2-carboxamide] | 97 (≈ 25.5 µg/mL) | 15 (≈ 3.95 µg/mL) | > 30 | 243 (≈ 64 µg/mL) |
| COc1ccccc1NC(=O)c1ccc2ccccc2c1O [Compound 9a, 1-hydroxy-N-(2-methoxyphenyl)naphtha-lene-2-carboxamide] | 852 (≈ 250 µg/mL) | 873 (≈ 256 µg/mL) |  | 873 (≈ 256 µg/mL) |
| COc1cccc(NC(=O)c2ccc3ccccc3c2O)c1 [Compound 9b, 1-hydroxy-N-(3-methoxyphenyl)naphthalene-2-carboxamide] | 852 (≈ 250 µg/mL) | 873 (≈ 256 µg/mL) |  | 873 (≈ 256 µg/mL) |
| COc1ccc(NC(=O)c2ccc3ccccc3c2O)cc1 [Compound 9c, 1-hydroxy-N-(4-methoxyphenyl)naphthalene-2-carboxamide] | 852 (≈ 250 µg/mL) | 873 (≈ 256 µg/mL) |  | 873 (≈ 256 µg/mL) |
| CCOc1ccccc1NC(=O)c1ccc2ccccc2c1O [Compound 10a, N-(2-Ethoxyphenyl)-1-hydroxynaphthalene-2-carboxamide] | 813 (≈ 250 µg/mL) | 832 (≈ 256 µg/mL) |  | 832 (≈ 256 µg/mL) |
| CCOc1cccc(NC(=O)c2ccc3ccccc3c2O)c1 [Compound 10b, N-(3-Ethoxyphenyl)-1-hydroxynaphthalene-2-carboxamide] | 813 (≈ 250 µg/mL) | 52 (≈ 16 µg/mL) | 3.02 ± 0.96 | 832 (≈ 256 µg/mL) |
| CCOc1ccc(NC(=O)c2ccc3ccccc3c2O)cc1 [Compound 10c, N-(4-Ethoxyphenyl)-1-hydroxynaphthalene-2-carboxamide] | 813 (≈ 250 µg/mL) | 832 (≈ 256 µg/mL) |  | 832 (≈ 256 µg/mL) |
| CCCOc1ccccc1NC(=O)c1ccc2ccccc2c1O [Compound 11a, 1-Hydroxy-N-(2-propoxyphenyl)naphthalene-2-carboxamide] | 778 (≈ 250 µg/mL) | 24 (≈ 7.71 µg/mL) |  | 796 (≈ 256 µg/mL) |
| CCCOc1ccc(NC(=O)c2ccc3ccccc3c2O)cc1 [Compound 11c, 1-Hydroxy-N-(4-propoxyphenyl)naphthalene-2-carboxamide] | 778 (≈ 250 µg/mL) | 24 (≈ 7.71 µg/mL) | > 30 | 796 (≈ 256 µg/mL) |
| CCCCOc1ccccc1NC(=O)c1ccc2ccccc2c1O [Compound 12a, N-(2-Butoxyphenyl)-1-hydroxynaphthalene-2-carboxamide] | 745 (≈ 250 µg/mL) | 763 (≈ 256 µg/mL) |  | 763 (≈ 256 µg/mL) |
| CCCCOc1ccc(NC(=O)c2ccc3ccccc3c2O)cc1 [Compound 12c, N-(4-Butoxyphenyl)-1-hydroxynaphthalene-2-carboxamide] | 745 (≈ 250 µg/mL) | 23 (≈ 7.71 µg/mL) | > 30 | 763 (≈ 256 µg/mL) |
| CC(C)Oc1ccccc1NC(=O)c1ccc2ccccc2c1O [Compound 13a, 1-Hydroxy-N-[2-(prop-2-yloxy)phenyl]naphthalene-2-carboxamide] | 778 (≈ 250 µg/mL) | 796 (≈ 256 µg/mL) |  | 796 (≈ 256 µg/mL) |
| CC(C)Oc1cccc(NC(=O)c2ccc3ccccc3c2O)c1 [Compound 13b, 1-Hydroxy-N-[3-(prop-2-yloxy)phenyl]naphthalene-2-carboxamide] | 389 (≈ 125 µg/mL) | 796 (≈ 256 µg/mL) | 4.32 ± 0.74 | 796 (≈ 256 µg/mL) |
| NNC(=O)c1ccncc1 [INH, isoniazid, reference compound] | 58 (≈ 7.95 µg/mL) |  | > 30 |  |
